Experimental data reported in US8426406B2, “Glucocorticoid receptor agonist comprising 2,2,4-trimethyl-6-phenyl-1,2-dihydroquinoline derivatives having substituted oxy group” (Santen Pharmaceutical Co., Ltd., priority 2008, dated 2013).

Test system: IL-6 production induced by lipopolysaccharide (LPS) in human corneal epithelial cells
Test: Evaluation test for GR agonist activity: inhibition of LPS-induced IL-6 production in human corneal epithelial cells (HCE-T)
Type: cell-based
Conditions: Corneal epithelial cell, 10 μL of 100 μM test compound solution per well, 4 hours incubation, efficacy relative to DEX
Protocol: In order to evaluate a GR agonist activity of the present compound, the inhibitory effects on the IL-6 production induced by lipopolysaccharide (LPS) in human corneal epithelial cells. IL-6 levels in the conditioned medium were measured using the HTRF human IL-6 Kit (boehringer-Ingelheim, Cat No. 62IL6PEB), and the procedure was carried out according to the protocol attached to the kit. Hereinafter, the specific method will be described.
LPS solution: After LPS was dissolved in phosphate buffer solution (hereinafter referred to as PBS(−)), the resulting solution was diluted with 10% FBS-DMEM/F12 medium, whereby a 1 μg/mL LPS solution was prepared.
After a test compound was dissolved in dimethylsulfoxide (hereinafter referred to as DMSO), the resulting solution was diluted with 10% FBS-DMEM/F12 medium, whereby a 100 μM test compound solution was prepared. A 100 μM DEX solution was prepared by the same method, and the inhibitory ratio of IL-6 production of DEX was evaluated to use for calculating efficacy (% DEX).
Used cell: SV40-immortalized human corneal epithelial cells (HCE-T) (RIKEN)
1) HCE-T cells were harvested, and seeded at 2.0×10^4 cells/0.1 mL/well in a 96-well plate.
2) After incubation overnight, the medium was removed and a 80 μL of new 10% FBS-DMEM/Ham's F12 medium was added into each well.
3) A 10 μL of test compounds solution was added into each well.
4) A 10 μL of LPS solution was added into each well.
5) As a negative control, a 10 μL of 10% FBS-DMEM/Ham's F12 medium was added into each well instead of a test compound solution and a LPS solution.
6) As a positive control, a 10 μL of 10% FBS-DMEM/Ham's F12 medium containing 1% DMSO was added into each well instead of a test compound solution.
7) After 4 hours incubation, supernatants were collected and IL-6 levels in the supernatants were quantitated using the HTRF human IL-6 Kit.
8) The inhibition ratio of IL-6 production (%) was calculated according to the following equation.
The inhibition ratio of IL-6 production (%) was calculated according to the following equation. The inhibition ratio of IL-6 production(%)=100×[1−(IL-6 level in each group−mean value of IL-6 level in negative control)/(mean value of IL-6 level in positive control−mean value of IL-6 level in negative control)](%)
Furthermore, the inhibition ratio of IL-6 production (efficacy (% DEX)) was also calculated according to the following equation. Efficacy(% DEX)=100×{(mean value of IL-6 inhibition in compound-treated group)/(mean value of IL-6 inhibition in DEX-treated group)}(%) (Result and Discussion)

Work on COc1cc(OS(=O)(=O)C2CCCC2)ccc1-c1ccc2c(c1COC(=O)c1ccc(C)s1)C(C)=CC(C)(C)N2 [Compound 4-30, 6-(4-Cyclopentylsulfonyloxy-2-methoxyphenyl)-5-(5-methylthiophen-2-ylcarbonyloxymethyl)-2,2,4-trimethyl-1,2-dihydroquinoline] yielded an Emax of 93%.

For COc1ccccc1NCc1c(-c2ccc(OC(=O)c3ccco3)cc2OC)ccc2c1C(C)=CC(C)(C)N2 [Compound 1-3, 6-[4-(Furan-2-ylcarbonyloxy)-2-methoxyphenyl]-5-(2-methoxyphenylaminomethyl)-2,2,4-trimethyl-1,2-dihydroquinoline], the Emax was 76%.

Work on COc1cc(OC(=O)c2ccncc2)ccc1-c1ccc2c(c1CNc1cc(F)ccc1C)C(C)=CC(C)(C)N2 [Compound 1-119, 5-(5-Fluoro-2-methylphenylaminomethyl)-6-[2-methoxy-4-(pyridin-4-ylcarbonyloxy)phenyl]-2,2,4-trimethyl-1,2-dihydroquinoline] yielded an Emax of 75%.

With COc1ccccc1NCc1c(-c2ccc(OC(=O)c3cccs3)cc2OC)ccc2c1C(C)=CC(C)(C)N2 [Compound 1-104, 5-(2-Methoxyphenylaminomethyl)-6-[2-methoxy-4-(thiophen-2-ylcarbonyloxy)phenyl]-2,2,4-trimethyl-1,2-dihydroquinoline] the Emax was 84%.

For CCCS(=O)(=O)Oc1ccc(-c2ccc3c(c2COc2cc([N+](=O)[O-])ccc2C)C(C)=CC(C)(C)N3)c(OC)c1 [Compound 4-12, 6-(2-Methoxy-4-propylsulfonyloxyphenyl)-5-(2-methyl-5-nitrophenoxymethyl)-2,2,4-trimethyl-1,2-dihydroquinoline], the Emax was 77%.

For COc1cc(OC(=O)c2ccncc2F)ccc1-c1ccc2c(c1COc1cc(F)ccc1C)C(C)=CC(C)(C)N2 [Compound 1-69, 5-(5-Fluoro-2-methylphenoxymethyl)-6-[4-(3-fluoropyridin-4-ylcarbonyloxy)-2-methoxyphenyl]-2,2,4-trimethyl-1,2-dihydroquinoline], the Emax was 72%.

COc1cc(OC(=O)c2occc2C)ccc1-c1ccc2c(c1CNc1cc(F)ccc1C)C(C)=CC(C)(C)N2 [Compound 1-126, 5-(5-Fluoro-2-methylphenylaminomethyl)-6-[2-methoxy-4-(3-methylfuran-2-ylcarbonyloxy)phenyl]-2,2,4-trimethyl-1,2-dihydroquinoline] showed an Emax of 81%.

COc1ccccc1NCc1c(-c2ccc(OC(=O)c3ccccc3Cl)cc2OC)ccc2c1C(C)=CC(C)(C)N2 [Compound 1-99, 6-[4-(2-Chlorobenzoyloxy)-2-methoxyphenyl]-5-(2-methoxyphenylaminomethyl)-2,2,4-trimethyl-1,2-dihydroquinoline] showed an Emax of 89%.

With COc1cc(OC(=O)c2ccnc(Cl)c2)ccc1-c1ccc2c(c1COc1cc(F)ccc1C)C(C)=CC(C)(C)N2 [Compound 1-68, 6-[4-(2-Chloropyridin-4-ylcarbonyloxy)-2-methoxyphenyl]-5-(5-fluoro-2-methylphenoxymethyl)-2,2,4-trimethyl-1,2-dihydroquinoline] the Emax was 72%.

With COc1cc(OC(=O)c2ccc(Cl)cc2)ccc1-c1ccc2c(c1COC(=O)c1ccc(C)s1)C(C)=CC(C)(C)N2 [Compound 1-141, 6-[4-(4-Chlorobenzoyloxy)-2-methoxyphenyl]-5-(5-methylthiophen-2-ylcarbonyloxymethyl)-2,2,4-trimethyl-1,2-dihydroquinoline] the Emax was 78%.

For COc1ccccc1NCc1c(-c2ccc(OC(=O)c3ccccc3F)cc2OC)ccc2c1C(C)=CC(C)(C)N2 [Compound 1-101, 6-[4-(2-Fluorobenzoyloxy)-2-methoxyphenyl]-5-(2-methoxyphenylaminomethyl)-2,2,4-trimethyl-1,2-dihydroquinoline], the Emax was 81%.

COc1ccccc1NCc1c(-c2ccc(OC(=O)c3occc3C)cc2OC)ccc2c1C(C)=CC(C)(C)N2 [Compound 1-114, 6-[2-Methoxy-4-(3-methylfuran-2-ylcarbonyloxy)phenyl]-5-(2-methoxyphenylaminomethyl)-2,2,4-trimethyl-1,2-dihydroquinoline] showed an Emax of 87%.

With COc1cc(OC(=O)c2cccnc2C)ccc1-c1ccc2c(c1COC(=O)c1ccc(C)s1)C(C)=CC(C)(C)N2 [Compound 1-153, 6-[2-Methoxy-4-(2-methylpyridin-3-ylcarbonyloxy)phenyl]-5-(5-methylthiophen-2-ylcarbonyloxymethyl)-2,2,4-trimethyl-1,2-dihydroquinoline] the Emax was 89%.

With COC(=O)c1cccc(C(=O)Oc2ccc(-c3ccc4c(c3COc3cc(F)ccc3C)C(C)=CC(C)(C)N4)c(OC)c2)c1 [Compound 1-54, 5-(5-Fluoro-2-methylphenoxymethyl)-6-[2-methoxy-4-(3-methoxycarbonylbenzoyloxy)phenyl]-2,2,4-trimethyl-1,2-dihydroquinoline] the Emax was 75%.

For COc1cc(OC(=O)c2ccccc2)ccc1-c1ccc2c(c1COC(=O)c1ccc(C)s1)C(C)=CC(C)(C)N2 [Compound 1-142, 6-(4-Benzoyloxy-2-methoxyphenyl)-5-(5-methylthiophen-2-ylcarbonyloxymethyl)-2,2,4-trimethyl-1,2-dihydroquinoline], the Emax was 97%.

COc1cc(OS(=O)(=O)CCC(F)(F)F)ccc1-c1ccc2c(c1COC(=O)c1ccc(C)s1)C(C)=CC(C)(C)N2 [Compound 4-26, 6-[2-Methoxy-4-(3,3,3-trifluoropropylsulfonyl-oxy)phenyl]-5-(5-methylthiophen-2-yl-carbonyloxymethyl)-2,2,4-trimethyl-1,2-dihydroquinoline] was tested, and the Emax was 77%.

Compound COc1cc(OC(=O)c2cccnc2C)ccc1-c1ccc2c(c1CNc1cc(F)ccc1C)C(C)=CC(C)(C)N2 [Compound 1-122, 5-(5-Fluoro-2-methylphenylaminomethyl)-6-[2-methoxy-4-(2-methylpyridin-3-ylcarbonyloxy)phenyl]-2,2,4-trimethyl-1,2-dihydroquinoline] has an Emax of 89%.

COc1ccccc1C(=O)Oc1ccc(-c2ccc3c(c2COc2cc(F)ccc2C)C(C)=CC(C)(C)N3)c(OC)c1 [Compound 1-6, 5-(5-Fluoro-2-methylphenoxymethyl)-6-[2-methoxy-4-(2-methoxybenzoyloxy)phenyl]-2,2,4-trimethyl-1,2-dihydroquinoline] gave an Emax of 93%.

COc1cc(OC(=O)c2ccco2)ccc1-c1ccc2c(c1CNc1cc(F)ccc1C)C(C)=CC(C)(C)N2 [Compound 1-106, 5-(5-Fluoro-2-methylphenylaminomethyl)-6-[4-(furan-2-ylcarbonyloxy)-2-methoxyphenyl]-2,2,4-trimethyl-1,2-dihydroquinoline] showed an Emax of 82%.

COc1cc(OC(=O)c2cccnc2)ccc1-c1ccc2c(c1COC(=O)c1ccc(Br)s1)C(C)=CC(C)(C)N2 [Compound 1-160, 5-(5-Bromothiophen-2-ylcarbonyloxymethyl)-6-[2-methoxy-4-(pyridin-3-ylcarbonyloxy)phenyl]-2,2,4-trimethyl-1,2-dihydroquinoline] was tested, and the Emax was 88%.

COc1cc(OC(=O)c2ccccc2SC)ccc1-c1ccc2c(c1COC(=O)c1ccc(C)s1)C(C)=CC(C)(C)N2 [Compound 1-151] gave an Emax of 90%.

Work on COc1cc(OC(=O)c2ccccc2F)ccc1-c1ccc2c(c1COC(=O)c1ccc(C)s1)C(C)=CC(C)(C)N2 [Compound 1-144, 6-[4-(2-Fluorobenzoyloxy)-2-methoxyphenyl]-5-(5-methylthiophen-2-ylcarbonyloxymethyl)-2,2,4-trimethyl-1,2-dihydroquinoline] yielded an Emax of 94%.
